Measured values published in ChEMBL document CHEMBL1129258, “Synthesis and structure-activity relationships of 2-pyridones: a novel series of potent DNA gyrase inhibitors as antibacterial agents” (J Med Chem, 1996).
Converted amounts (≈) assume the structure as drawn.

Key:
[1] = In vitro antibacterial activity against gram-negative organism Pseudomonas aeruginosa DPHD-2862; assay type: functional; settings: Pseudomonas aeruginosa; read-out: MIC
Streptococcus pyogenes = assay: In vitro antibacterial activity against gram-positive organism Streptococcus pyogenes EES61; assay type: functional; settings: Streptococcus pyogenes; read-out: MIC
[2] = biological target: T1, DNA gyrase (Staphylococcus aureus) (UniProt P0A0K8+P20831); assay: In vitro antibacterial activity against gram-positive organism Staphylococcus aureus 1775; assay type: functional
T1 sequence (P0A0K8 2-644 limits assumed): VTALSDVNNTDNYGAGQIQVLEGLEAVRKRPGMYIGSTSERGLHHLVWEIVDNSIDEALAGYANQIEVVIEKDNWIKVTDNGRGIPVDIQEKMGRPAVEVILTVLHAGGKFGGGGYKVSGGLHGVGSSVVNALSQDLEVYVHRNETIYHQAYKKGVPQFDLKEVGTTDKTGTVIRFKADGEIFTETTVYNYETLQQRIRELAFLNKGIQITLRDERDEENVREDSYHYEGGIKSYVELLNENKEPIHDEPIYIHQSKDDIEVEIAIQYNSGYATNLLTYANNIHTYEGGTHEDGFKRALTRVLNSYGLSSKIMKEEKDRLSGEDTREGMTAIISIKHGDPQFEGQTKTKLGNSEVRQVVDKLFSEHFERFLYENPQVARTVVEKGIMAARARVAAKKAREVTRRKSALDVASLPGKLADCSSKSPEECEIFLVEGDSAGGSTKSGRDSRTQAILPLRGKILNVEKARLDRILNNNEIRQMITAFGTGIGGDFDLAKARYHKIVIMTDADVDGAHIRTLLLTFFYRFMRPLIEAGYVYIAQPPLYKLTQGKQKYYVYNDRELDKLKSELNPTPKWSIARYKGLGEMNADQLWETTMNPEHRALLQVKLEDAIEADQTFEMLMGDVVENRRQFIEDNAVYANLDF
T1 sequence (P20831 whole entry partner): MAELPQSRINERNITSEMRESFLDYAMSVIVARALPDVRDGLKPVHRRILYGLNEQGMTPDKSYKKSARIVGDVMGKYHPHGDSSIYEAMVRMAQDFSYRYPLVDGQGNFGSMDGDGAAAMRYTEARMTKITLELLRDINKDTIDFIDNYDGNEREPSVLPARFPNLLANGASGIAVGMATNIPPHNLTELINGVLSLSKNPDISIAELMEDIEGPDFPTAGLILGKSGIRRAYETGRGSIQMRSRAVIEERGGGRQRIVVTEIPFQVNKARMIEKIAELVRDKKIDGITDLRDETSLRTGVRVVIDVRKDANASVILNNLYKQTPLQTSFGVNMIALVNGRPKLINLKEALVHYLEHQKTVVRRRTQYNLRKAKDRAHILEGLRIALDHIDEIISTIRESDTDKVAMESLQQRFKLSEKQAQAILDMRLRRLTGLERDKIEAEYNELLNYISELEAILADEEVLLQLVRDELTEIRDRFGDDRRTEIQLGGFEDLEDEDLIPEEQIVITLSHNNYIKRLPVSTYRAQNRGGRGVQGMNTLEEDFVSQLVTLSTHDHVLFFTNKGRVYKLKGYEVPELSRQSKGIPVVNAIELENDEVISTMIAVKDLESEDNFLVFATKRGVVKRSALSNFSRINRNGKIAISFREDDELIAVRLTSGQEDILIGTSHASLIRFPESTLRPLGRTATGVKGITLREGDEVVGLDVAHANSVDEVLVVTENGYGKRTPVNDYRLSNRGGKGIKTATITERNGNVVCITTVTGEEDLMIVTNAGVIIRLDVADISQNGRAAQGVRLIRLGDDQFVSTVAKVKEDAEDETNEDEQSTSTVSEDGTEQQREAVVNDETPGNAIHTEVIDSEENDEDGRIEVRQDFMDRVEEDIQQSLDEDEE

[3] = biological target: T2, DNA gyrase (Escherichia coli) (UniProt P0AES6+P0AES4); assay: In vitro antibacterial activity against gram-negative organism Prov. stuartii CMX-640; assay type: functional; settings: Providencia stuartii
[4] = biological target: T2, DNA gyrase (Escherichia coli); assay: In vitro antibacterial activity against gram-negative organism Klebsiella pneumoniae ATCC 8045; assay type: functional
[5] = In vitro antibacterial activity against gram-negative organism Pseudomonas aeruginosa 5007; assay type: functional; settings: Pseudomonas aeruginosa; read-out: MIC
[6] = biological target: T2, DNA gyrase (Escherichia coli); assay: In vitro antibacterial activity against gram-positive organism Enterococcus faecium ATCC 8043; assay type: functional
[7] = biological target: T2, DNA gyrase (Escherichia coli); assay: In vitro antibacterial activity against gram-negative organism […] ATCC 13048; assay type: functional; settings: Enterobacter aerogenes
[8] = biological target: T2, DNA gyrase (Escherichia coli); assay: In vitro antibacterial against gram-negative organism Escherichia coli JUHL; assay type: functional; settings: Escherichia coli K-12
[9] = biological target: T1, DNA gyrase (Staphylococcus aureus); assay: In vitro antibacterial activity against gram-positive organism Staphylococcus aureus NCTC-10649M; assay type: functional
[10] = biological target: T1, DNA gyrase (Staphylococcus aureus); assay: In vitro antibacterial activity against gram-positive organism Staphylococcus aureus ATCC 6538p; assay type: functional
[11] = biological target: T2, DNA gyrase (Escherichia coli); assay: In vitro antibacterial activity against gram-positive organism Streptococcus bovis A-5169; assay type: functional; settings: Streptococcus equinus
[12] = biological target: T2, DNA gyrase (Escherichia coli); settings: Escherichia coli K-12
Description: Concentration which causes 50% of the gyrase (Escherichia coli H560)-mediated maximal DNA cleavage.

Row | Structure (SMILES) | MIC [1] | MIC (Streptococcus pyogenes) | MIC [2] | MIC [3] | MIC [4] | MIC [5] | MIC [6] | MIC [7] | MIC [8] | MIC [9] | MIC [10] | MIC [11] | CC50 [12]
1 | CCc1c(N2CCC(N)C2)c(F)cn2c(=O)c(C(=O)O)cc(C3CC3)c12 (stereo not drawn) | 50 µg/mL (≈ 139 µM) | 0.39 µg/mL (≈ 1.09 µM) | 6.2 µg/mL (≈ 17.3 µM) | 3.1 µg/mL (≈ 8.63 µM) | 0.1 µg/mL (≈ 0.278 µM) | 1.56 µg/mL (≈ 4.34 µM) | 0.39 µg/mL (≈ 1.09 µM) | 0.39 µg/mL (≈ 1.09 µM) | 0.2 µg/mL (≈ 0.556 µM) | 0.1 µg/mL (≈ 0.278 µM) | 0.1 µg/mL (≈ 0.278 µM) | – | –
2 | O=C(O)c1cc(-c2ccc(F)cc2F)c2nc(N3CCC(O)C3)c(F)cn2c1=O (stereo not drawn) | > 100 µg/mL | 0.78 µg/mL (≈ 1.92 µM) | 100 µg/mL (≈ 247 µM) | 6.2 µg/mL (≈ 15.3 µM) | 0.05 µg/mL (≈ 0.123 µM) | 0.78 µg/mL (≈ 1.92 µM) | 0.78 µg/mL (≈ 1.92 µM) | 0.39 µg/mL (≈ 0.962 µM) | 0.1 µg/mL (≈ 0.247 µM) | 0.05 µg/mL (≈ 0.123 µM) | 0.05 µg/mL (≈ 0.123 µM) | 6.2 µg/mL (≈ 15.3 µM) | 0.5 µg/mL (≈ 1.23 µM)
3 | CN1CCN(c2nc3c(-c4ccc(F)cc4)cc(C(=O)O)c(=O)n3cc2F)CC1 | – | 6.2 µg/mL (≈ 15.5 µM) | 25 µg/mL (≈ 62.4 µM) | 25 µg/mL (≈ 62.4 µM) | 0.2 µg/mL (≈ 0.5 µM) | 6.2 µg/mL (≈ 15.5 µM) | 25 µg/mL (≈ 62.4 µM) | 0.78 µg/mL (≈ 1.95 µM) | 0.39 µg/mL (≈ 0.974 µM) | 0.39 µg/mL (≈ 0.974 µM) | 0.39 µg/mL (≈ 0.974 µM) | 25 µg/mL (≈ 62.4 µM) | –
4 | Cc1c(N2CCC(c3ccccn3)C2)c(F)cn2c(=O)c(C(=O)O)cc(C3CC3)c12 (stereo not drawn) | 12.5 µg/mL (≈ 30.7 µM) | 0.05 µg/mL (≈ 0.123 µM) | 0.2 µg/mL (≈ 0.491 µM) | 1.56 µg/mL (≈ 3.83 µM) | 0.05 µg/mL (≈ 0.123 µM) | 0.78 µg/mL (≈ 1.91 µM) | 0.05 µg/mL (≈ 0.123 µM) | 0.78 µg/mL (≈ 1.91 µM) | 0.05 µg/mL (≈ 0.123 µM) | 0.02 µg/mL (≈ 0.0491 µM) | 0.01 µg/mL (≈ 0.0245 µM) | 0.05 µg/mL (≈ 0.123 µM) | 2.6 µg/mL (≈ 6.38 µM)
5 | CC(=O)N[C@H]1C[C@H](C)N(c2nc3c(-c4ccc(F)cc4F)cc(C(=O)O)c(=O)n3cc2F)C1 | > 100 µg/mL | 0.78 µg/mL (≈ 1.69 µM) | 25 µg/mL (≈ 54.3 µM) | 25 µg/mL (≈ 54.3 µM) | 0.39 µg/mL (≈ 0.847 µM) | 3.1 µg/mL (≈ 6.73 µM) | 1.56 µg/mL (≈ 3.39 µM) | 3.1 µg/mL (≈ 6.73 µM) | 0.78 µg/mL (≈ 1.69 µM) | 0.2 µg/mL (≈ 0.434 µM) | 0.1 µg/mL (≈ 0.217 µM) | 3.1 µg/mL (≈ 6.73 µM) | 1.3 µg/mL (≈ 2.82 µM)
6 | CN1CCN(c2nc3c(-c4ccc(F)cc4F)cc(C(=O)O)c(=O)n3cc2F)CC1 | > 100 µg/mL | 3.1 µg/mL (≈ 7.41 µM) | > 100 µg/mL | 25 µg/mL (≈ 59.8 µM) | 0.2 µg/mL (≈ 0.478 µM) | 6.2 µg/mL (≈ 14.8 µM) | 6.2 µg/mL (≈ 14.8 µM) | 0.78 µg/mL (≈ 1.86 µM) | 0.39 µg/mL (≈ 0.932 µM) | 0.2 µg/mL (≈ 0.478 µM) | 0.2 µg/mL (≈ 0.478 µM) | 12.5 µg/mL (≈ 29.9 µM) | –
7 | COc1ccc(-c2cc(C(=O)O)c(=O)n3cc(F)c(N4CCC(N)C4)nc23)cc1 (stereo not drawn) | 50 µg/mL (≈ 126 µM) | 25 µg/mL (≈ 62.8 µM) | 100 µg/mL (≈ 251 µM) | > 100 µg/mL | 12.5 µg/mL (≈ 31.4 µM) | 100 µg/mL (≈ 251 µM) | 25 µg/mL (≈ 62.8 µM) | 25 µg/mL (≈ 62.8 µM) | 25 µg/mL (≈ 62.8 µM) | 50 µg/mL (≈ 126 µM) | 50 µg/mL (≈ 126 µM) | 25 µg/mL (≈ 62.8 µM) | –
8 | Cc1c(-n2ccnc2)c(F)cn2c(=O)c(C(=O)O)cc(C3CC3)c12 | > 100 µg/mL | 1.56 µg/mL (≈ 4.77 µM) | 6.2 µg/mL (≈ 18.9 µM) | 12.5 µg/mL (≈ 38.2 µM) | 0.2 µg/mL (≈ 0.611 µM) | 6.2 µg/mL (≈ 18.9 µM) | 0.39 µg/mL (≈ 1.19 µM) | 0.39 µg/mL (≈ 1.19 µM) | 0.39 µg/mL (≈ 1.19 µM) | 0.2 µg/mL (≈ 0.611 µM) | 0.1 µg/mL (≈ 0.306 µM) | – | 0.3 µg/mL (≈ 0.917 µM)
9 | Cc1c(N2C[C@@H](N)C[C@H]2C)c(F)cn2c(=O)c(C(=O)O)cc(C3CC3)c12 | 3.1 µg/mL (≈ 8.63 µM) | 0.2 µg/mL (≈ 0.556 µM) | 0.78 µg/mL (≈ 2.17 µM) | 3.1 µg/mL (≈ 8.63 µM) | 0.01 µg/mL (≈ 0.0278 µM) | 0.78 µg/mL (≈ 2.17 µM) | 0.05 µg/mL (≈ 0.139 µM) | 0.1 µg/mL (≈ 0.278 µM) | 0.1 µg/mL (≈ 0.278 µM) | 0.02 µg/mL (≈ 0.0556 µM) | 0.01 µg/mL (≈ 0.0278 µM) | 0.1 µg/mL (≈ 0.278 µM) | –
10 | Cc1c(N(C)CCN)c(F)cn2c(=O)c(C(=O)O)cc(C3CC3)c12 | > 100 µg/mL | 12.5 µg/mL (≈ 37.5 µM) | > 100 µg/mL | 25 µg/mL (≈ 75 µM) | 0.2 µg/mL (≈ 0.6 µM) | 6.2 µg/mL (≈ 18.6 µM) | 3.1 µg/mL (≈ 9.3 µM) | 1.56 µg/mL (≈ 4.68 µM) | 0.78 µg/mL (≈ 2.34 µM) | 1.56 µg/mL (≈ 4.68 µM) | 1.56 µg/mL (≈ 4.68 µM) | 12.5 µg/mL (≈ 37.5 µM) | –
11 | O=C(O)c1cc(C2CC2)c2nc(N3CCOCC3)c(F)cn2c1=O | – | > 100 µg/mL | > 100 µg/mL | > 100 µg/mL | 0.39 µg/mL (≈ 1.17 µM) | 25 µg/mL (≈ 75 µM) | > 100 µg/mL | 3.1 µg/mL (≈ 9.3 µM) | 3.1 µg/mL (≈ 9.3 µM) | 6.2 µg/mL (≈ 18.6 µM) | 6.2 µg/mL (≈ 18.6 µM) | > 100 µg/mL | 1.5 µg/mL (≈ 4.5 µM)
12 | CCc1cc(C(=O)O)c(=O)n2ccc(N3CCC(N)C3)cc12.Cl (stereo not drawn) | – | 25 µg/mL | – | 25 µg/mL | 3.1 µg/mL | 6.2 µg/mL | 50 µg/mL | 3.1 µg/mL | 3.1 µg/mL | 6.2 µg/mL | 3.1 µg/mL | 25 µg/mL | –
13 | Cc1c(N2CCCNCC2)c(F)cn2c(=O)c(C(=O)O)cc(C3CC3)c12 | 6.2 µg/mL (≈ 17.3 µM) | 0.39 µg/mL (≈ 1.09 µM) | 25 µg/mL (≈ 69.6 µM) | 3.1 µg/mL (≈ 8.63 µM) | 0.05 µg/mL (≈ 0.139 µM) | 0.78 µg/mL (≈ 2.17 µM) | 0.2 µg/mL (≈ 0.556 µM) | 0.1 µg/mL (≈ 0.278 µM) | 0.02 µg/mL (≈ 0.0556 µM) | 0.2 µg/mL (≈ 0.556 µM) | 0.1 µg/mL (≈ 0.278 µM) | 0.78 µg/mL (≈ 2.17 µM) | –
14 | Cc1ccc(S(=O)(=O)O)cc1.NC1CCN(c2nc3c(cc2F)c(=O)c(C(=O)O)cn3-c2ccc(F)cc2F)C1 (stereo not drawn) [TOSUFLOXACIN TOSYLATE] | > 100 µg/mL | 0.39 µg/mL | > 100 µg/mL | 1.56 µg/mL | 0.02 µg/mL | 0.39 µg/mL | 0.2 µg/mL | 0.05 µg/mL | 0.05 µg/mL | 0.05 µg/mL | 0.05 µg/mL | 0.78 µg/mL | –
15 | Cc1c(N2C[C@@H]3C[C@H]2CN3)c(F)cn2c(=O)c(C(=O)O)cc(C3CC3)c12 | 6.2 µg/mL (≈ 17.3 µM) | 0.2 µg/mL (≈ 0.56 µM) | 6.2 µg/mL (≈ 17.3 µM) | 0.78 µg/mL (≈ 2.18 µM) | 0.05 µg/mL (≈ 0.14 µM) | 0.2 µg/mL (≈ 0.56 µM) | 0.2 µg/mL (≈ 0.56 µM) | 0.1 µg/mL (≈ 0.28 µM) | 0.02 µg/mL (≈ 0.056 µM) | 0.2 µg/mL (≈ 0.56 µM) | 0.1 µg/mL (≈ 0.28 µM) | 0.39 µg/mL (≈ 1.09 µM) | –
16 | CO[C@@H]1CN(c2c(F)cn3c(=O)c(C(=O)O)cc(C4CC4)c3c2C)C[C@H]1N | 25 µg/mL (≈ 66.6 µM) | 0.39 µg/mL (≈ 1.04 µM) | 3.1 µg/mL (≈ 8.26 µM) | 3.1 µg/mL (≈ 8.26 µM) | 0.05 µg/mL (≈ 0.133 µM) | 1.56 µg/mL (≈ 4.16 µM) | 0.39 µg/mL (≈ 1.04 µM) | 0.2 µg/mL (≈ 0.533 µM) | 0.05 µg/mL (≈ 0.133 µM) | 0.05 µg/mL (≈ 0.133 µM) | 0.05 µg/mL (≈ 0.133 µM) | 0.39 µg/mL (≈ 1.04 µM) | –
17 | Cc1c(N2CCC(C)(N)C2)c(F)cn2c(=O)c(C(=O)O)cc(C3CC3)c12 (stereo not drawn) | 6.2 µg/mL (≈ 17.3 µM) | 0.1 µg/mL (≈ 0.278 µM) | 1.56 µg/mL (≈ 4.34 µM) | 0.78 µg/mL (≈ 2.17 µM) | 0.01 µg/mL (≈ 0.0278 µM) | 0.2 µg/mL (≈ 0.556 µM) | 0.1 µg/mL (≈ 0.278 µM) | 0.05 µg/mL (≈ 0.139 µM) | 0.01 µg/mL (≈ 0.0278 µM) | 0.05 µg/mL (≈ 0.139 µM) | 0.02 µg/mL (≈ 0.0556 µM) | 0.1 µg/mL (≈ 0.278 µM) | –
